From BindingDB's records for doi:10.1021/jm000541z (Abbott Laboratories, 2001)

biological target: Alpha-1B adrenergic receptor (Mesocricetus auratus) (UniProt P18841); experiment: Binding affinity to hamster alpha-1B adrenergic receptor
Sequence (P18841 whole entry, looked up): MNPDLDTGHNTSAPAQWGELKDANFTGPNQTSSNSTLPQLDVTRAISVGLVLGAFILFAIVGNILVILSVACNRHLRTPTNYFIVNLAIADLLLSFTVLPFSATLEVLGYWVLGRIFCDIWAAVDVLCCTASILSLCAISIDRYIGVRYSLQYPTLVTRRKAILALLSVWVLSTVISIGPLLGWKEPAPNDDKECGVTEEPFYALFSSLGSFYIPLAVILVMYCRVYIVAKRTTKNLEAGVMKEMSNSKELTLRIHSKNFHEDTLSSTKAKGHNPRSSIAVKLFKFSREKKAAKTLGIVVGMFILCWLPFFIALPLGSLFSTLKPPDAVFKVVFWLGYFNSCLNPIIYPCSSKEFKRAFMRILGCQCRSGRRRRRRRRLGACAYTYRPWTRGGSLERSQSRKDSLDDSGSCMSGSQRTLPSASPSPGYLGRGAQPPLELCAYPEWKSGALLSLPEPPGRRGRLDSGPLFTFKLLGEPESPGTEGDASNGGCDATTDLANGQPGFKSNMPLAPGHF

Compound | Ki [nM]
COc1cc(N)c(C(=O)NCCN2C[C@@H]3CCc4c(OC)cccc4[C@@H]3C2)cc1OC [2-Amino-4,5-dimethoxy-N-[2-(6-methoxy-1,3,3a,4,5,9b-hexahydro-benzo[e]isoindol-2-yl)-ethyl]-benzamide] | 29.1
COc1cc2c(cc1OC)CN(CCN1C[C@@H]3CCc4c(OC)cccc4[C@@H]3C1)CC2 [2-[2-(6,7-Dimethoxy-3,4-dihydro-1H-isoquinolin-2-yl)-ethyl]-6-methoxy-2,3,3a,4,5,9b-hexahydro-1H-benzo[e]isoindole] | 116
COc1cccc2c1CC[C@H]1CN(CCn3c(=O)[nH]c4c(sc5ncc(Cl)nc54)c3=O)C[C@@H]21 [3-Chloro-7-[2-(6-methoxy-1,3,3a,4,5,9b-hexahydro-benzo[e]isoindol-2-yl)-ethyl]-5H-9-thia-1,4,5,7-tetraaza-fluorene-6,8-dione] | 35.1
COc1cccc2c1CC[C@H]1CN(CCn3c(=O)[nH]c4[nH]ccc4c3=O)C[C@@H]21 [3-[2-(6-Methoxy-1,3,3a,4,5,9b-hexahydro-benzo[e]isoindol-2-yl)-ethyl]-1,7-dihydro-pyrrolo[2,3-d]pyrimidine-2,4-dione] | 2.58
COc1cccc2c1CC[C@H]1CN(CCn3c(=O)[nH]c4nccnc4c3=O)C[C@@H]21 [3-[2-(6-Methoxy-1,3,3a,4,5,9b-hexahydro-benzo[e]isoindol-2-yl)-ethyl]-1H-pteridine-2,4-dione] | 12.6
COc1cccc2c1CC[C@H]1CN(CCn3c(=O)[nH]c4ncccc4c3=O)C[C@@H]21 [3-[2-(6-Methoxy-1,3,3a,4,5,9b-hexahydro-benzo[e]isoindol-2-yl)-ethyl]-1H-pyrido[2,3-d]pyrimidine-2,4-dione] | 3.31
COc1cccc2c1CC[C@H]1CN(CCn3c(=O)[nH]c4cccnc4c3=O)C[C@@H]21 [3-[2-(6-Methoxy-1,3,3a,4,5,9b-hexahydro-benzo[e]isoindol-2-yl)-ethyl]-1H-pyrido[3,2-d]pyrimidine-2,4-dione] | 8.2
COc1cccc2c1CC[C@H]1CN(CCn3c(=O)[nH]c4cnccc4c3=O)C[C@@H]21 [3-[2-(6-Methoxy-1,3,3a,4,5,9b-hexahydro-benzo[e]isoindol-2-yl)-ethyl]-1H-pyrido[3,4-d]pyrimidine-2,4-dione] | 3.1
COc1cccc2c1CC[C@H]1CN(CCn3c(=O)[nH]c4ccncc4c3=O)C[C@@H]21 [3-[2-(6-Methoxy-1,3,3a,4,5,9b-hexahydro-benzo[e]isoindol-2-yl)-ethyl]-1H-pyrido[4,3-d]pyrimidine-2,4-dione] | 10.6
COc1cccc2c1CC[C@H]1CN(CCn3c(=O)[nH]c4ccccc4c3=O)C[C@@H]21 [3-[2-(6-Methoxy-1,3,3a,4,5,9b-hexahydro-benzo[e]isoindol-2-yl)-ethyl]-1H-quinazoline-2,4-dione] | 1.16
COc1cccc2c1CC[C@H]1CN(CCn3c(=O)[nH]c4sccc4c3=O)C[C@@H]21 [3-[2-(6-Methoxy-1,3,3a,4,5,9b-hexahydro-benzo[e]isoindol-2-yl)-ethyl]-1H-thieno[2,3-d]pyrimidine-2,4-dione] | 2.11
COc1cccc2c1CC[C@H]1CN(CCn3c(=O)[nH]c4ccsc4c3=O)C[C@@H]21 [3-[2-(6-Methoxy-1,3,3a,4,5,9b-hexahydro-benzo[e]isoindol-2-yl)-ethyl]-1H-thieno[3,2-d]pyrimidine-2,4-dione] | 1.63
COc1cccc2c1CC[C@H]1CN(CCn3c(=O)[nH]c4cscc4c3=O)C[C@@H]21 [3-[2-(6-Methoxy-1,3,3a,4,5,9b-hexahydro-benzo[e]isoindol-2-yl)-ethyl]-1H-thieno[3,4-d]pyrimidine-2,4-dione] | 1.01
COc1cccc2c1CC[C@H]1CN(CCn3c(=O)[nH]c4cc(C#N)ccc4c3=O)C[C@@H]21 [3-[2-(6-Methoxy-1,3,3a,4,5,9b-hexahydro-benzo[e]isoindol-2-yl)-ethyl]-2,4-dioxo-1,2,3,4-tetrahydro-quinazoline-7-carbonitrile] | 1.56
COC(=O)c1ccc2c(=O)n(CCN3C[C@@H]4CCc5c(OC)cccc5[C@@H]4C3)c(=O)[nH]c2c1 [3-[2-(6-Methoxy-1,3,3a,4,5,9b-hexahydro-benzo[e]isoindol-2-yl)-ethyl]-2,4-dioxo-1,2,3,4-tetrahydro-quinazoline-7-carboxylic acid methyl ester] | 1.64
COC(=O)c1cc2[nH]c(=O)n(CCN3C[C@@H]4CCc5c(OC)cccc5[C@@H]4C3)c(=O)c2s1 [3-[2-(6-Methoxy-1,3,3a,4,5,9b-hexahydro-benzo[e]isoindol-2-yl)-ethyl]-2,4-dioxo-1,2,3,4-tetrahydro-thieno[3,2-d]pyrimidine-6-carboxylic acid methyl ester] | 3.37
COc1cccc2c1CC[C@H]1CN(CCn3c(=O)[nH]c4cccc(C)c4c3=O)C[C@@H]21 [3-[2-(6-Methoxy-1,3,3a,4,5,9b-hexahydro-benzo[e]isoindol-2-yl)-ethyl]-5-methyl-1H-quinazoline-2,4-dione] | 1.04
COc1cccc2c1CC[C@H]1CN(CCn3c(=O)[nH]c4cc(C)c(C)cc4c3=O)C[C@@H]21 [3-[2-(6-Methoxy-1,3,3a,4,5,9b-hexahydro-benzo[e]isoindol-2-yl)-ethyl]-6,7-dimethyl-1H-quinazoline-2,4-dione] | 4.07
COc1cccc2c1CC[C@H]1CN(CCn3c(=O)[nH]c4c(C)cc(C)cc4c3=O)C[C@@H]21 [3-[2-(6-Methoxy-1,3,3a,4,5,9b-hexahydro-benzo[e]isoindol-2-yl)-ethyl]-6,8-dimethyl-1H-quinazoline-2,4-dione] | 16.3
COc1cccc2c1CC[C@H]1CN(CCn3c(=O)[nH]c4cc(-c5ccccc5)sc4c3=O)C[C@@H]21 [3-[2-(6-Methoxy-1,3,3a,4,5,9b-hexahydro-benzo[e]isoindol-2-yl)-ethyl]-6-phenyl-1H-thieno[3,2-d]pyrimidine-2,4-dione] | 11.3
COc1cccc2c1CC[C@H]1CN(CCn3c(=O)[nH]c4c(C)c(C)ccc4c3=O)C[C@@H]21 [3-[2-(6-Methoxy-1,3,3a,4,5,9b-hexahydro-benzo[e]isoindol-2-yl)-ethyl]-7,8-dimethyl-1H-quinazoline-2,4-dione] | 1.32
COc1cccc2c1CC[C@H]1CN(CCn3c(=O)[nH]c4cc([N+](=O)[O-])ccc4c3=O)C[C@@H]21 [3-[2-(6-Methoxy-1,3,3a,4,5,9b-hexahydro-benzo[e]isoindol-2-yl)-ethyl]-7-nitro-1H-quinazoline-2,4-dione] | 3.33
COc1cccc2c1CC[C@H]1CN(CCn3c(=O)[nH]c4cccc(Cl)c4c3=O)C[C@@H]21 [5-Chloro-3-[2-(6-methoxy-1,3,3a,4,5,9b-hexahydro-benzo[e]isoindol-2-yl)-ethyl]-1H-quinazoline-2,4-dione] | 0.92
COc1cc2c(=O)n(CCN3C[C@@H]4CCc5c(OC)cccc5[C@@H]4C3)c(=O)n(C)c2cc1OC [6,7-Dimethoxy-3-[2-(6-methoxy-1,3,3a,4,5,9b-hexahydro-benzo[e]isoindol-2-yl)-ethyl]-1-methyl-1H-quinazoline-2,4-dione] | 3.31
COc1cc2[nH]c(=O)n(CCN3C[C@@H]4CCc5c(OC)cccc5[C@@H]4C3)c(=O)c2cc1OC [6,7-Dimethoxy-3-[2-(6-methoxy-1,3,3a,4,5,9b-hexahydro-benzo[e]isoindol-2-yl)-ethyl]-1H-quinazoline-2,4-dione] | 6.46
